Experimental data: paper PMC5851869 (Bioorganic & medicinal chemistry letters, 2018)

The compounds below were run against pa-HemO (Pseudomonas aeruginosa, UniProt O69002) (assay: fluorescence quenching assay). Details: not given.
Format: binding

| Compound | Kd |
| --- | --- |
| O=C(O)CCN1C(=O)/C(=C/c2cccc(Nc3ccccc3)c2)SC1=S [compound 21] | ~1000 nM |
| O=C(O)CCN1C(=O)/C(=C\c2ccc(-c3cccc(O)c3)o2)SC1=S [compound 27] | ~1000 nM |

Same assay, conditions: ratio of KD values relative to inhibitor 2

| Compound | fold improvement in potency/affinity compared to compound 2 |
| --- | --- |
| O=C1/C(=C/c2ccccn2)SC(=S)N1CCc1nnn[nH]1 [compound 3] | ~2 fold |
| COc1cccc(/C=C2\SC(=S)N(CCC(=O)O)C2=O)c1 [compound 8] | ~ 2 fold |
| COc1ccc(/C=C2\SC(=S)N(CCC(=O)O)C2=O)cc1 [compound 9] | ~ 2 fold |
| O=C(O)CCN1C(=O)/C(=C/c2ccc(Cl)cc2)SC1=S [compound 11] | > 3 fold |
| CC(C)c1ccc(/C=C2\SC(=S)N(CCC(=O)O)C2=O)cc1 [compound 13] | 5 fold |

The compounds below were run on P. aeruginosa (assay: not given). Details: statement covers both MIC50 and biofilm formation assays.
Format: cell-based, Pseudomonas aeruginosa

| Compound | anti-bacterial effect (in words) |
| --- | --- |
| O=C(O)CCN1C(=O)/C(=C\c2ccc(-c3ccccc3)cc2)SC1=S [compound 18] | poor anti-bacterial effects |
| O=C(O)CCN1C(=O)/C(=C/c2cccc(Nc3ccccc3)c2)SC1=S [compound 21] | poor anti-bacterial effects |
| O=C(O)CCN1C(=O)/C(=C\c2ccc(-c3cccc(O)c3)o2)SC1=S [compound 27] | poor anti-bacterial effects |
| NCCN1C(=O)/C(=C/c2ccc(-c3ccccc3)cc2)SC1=S [compound 30] | did not have significant antibacterial activity |
| CN(C)CCN1C(=O)/C(=C\c2ccc(-c3ccccc3)cc2)SC1=S [compound 31] | did not have significant antibacterial activity |
